Data as given in ChEMBL document CHEMBL1201861, “Genomics of Drug Sensitity in Cancer screening data, Wellcome Trust Sanger Institute”.
pIC50: −log10 of the molar value.

Experiments:
Assay in all cases: cells
K562 = assay type: functional, cell-based; conditions: Homo sapiens
Description: SANGER: Inhibition of human K-562 cell growth in a cell viability assay.

EFO-21 = assay type: functional, cell-based, Homo sapiens; conditions: Homo sapiens, EFO-21;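 note: growth inhibition of EFO-21 cells measured with a viability assay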
Description: SANGER: Inhibition of human EFO-21 cell growth in a cell viability assay.

MFH-ino = assay type: functional, cell-based; conditions: Homo sapiens;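 note: growth inhibition of human MFH-ino cells, read out by a cell viability assay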
Description: SANGER: Inhibition of human MFH-ino cell growth in a cell viability assay.

SBC-5 = assay type: functional, cell-based, Homo sapiens; conditions: Homo sapiens, SBC-5;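 note: cell viability assay read-out, IC50 is the concentration that inhibits growth of the cells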
Description: SANGER: Inhibition of human SBC-5 cell growth in a cell viability assay.

NCI-H82 = assay type: functional, cell-based; conditions: Homo sapiens;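 note: growth inhibition of NCI-H82 cells, measured with a cell viability readout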
Description: SANGER: Inhibition of human NCI-H82 cell growth in a cell viability assay.

MKN-45 = assay type: functional, cell-based, Homo sapiens; conditions: Homo sapiens, MKN-45;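 note: growth inhibition of human MKN-45 cells, measured with a cell viability assay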
Description: SANGER: Inhibition of human MKN45 cell growth in a cell viability assay.

NH-12 = assay type: functional, cell-based, Homo sapiens; conditions: Homo sapiens, NH-12;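 note: growth inhibition of NH-12 cells, read out with a cell viability assay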
Description: SANGER: Inhibition of human NH-12 cell growth in a cell viability assay.

D283 Med = assay type: functional, cell-based, Homo sapiens; conditions: Homo sapiens, D283 Med
Description: SANGER: Inhibition of human D-283MED cell growth in a cell viability assay.

HT-3 = assay type: functional, cell-based, Homo sapiens; conditions: Homo sapiens, HT-3;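 note: growth inhibition measured with a cell viability readout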
Description: SANGER: Inhibition of human HT-3 cell growth in a cell viability assay.

ME-180 = assay type: functional, cell-based; conditions: Homo sapiens;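 note: cell viability assay measuring growth inhibition of ME-180 cells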
Description: SANGER: Inhibition of human ME-180 cell growth in a cell viability assay.

ES4 = assay type: functional, cell-based, Homo sapiens; conditions: Homo sapiens, ES4;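 note: growth inhibition of human ES4 cells, read out by a cell viability assay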
Description: SANGER: Inhibition of human ES4 cell growth in a cell viability assay.

SKG-IIIa = assay type: functional, cell-based, Homo sapiens; conditions: Homo sapiens, SKG-IIIa;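 note: cell growth inhibition, read out with a cell viability assay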
Description: SANGER: Inhibition of human SKG-IIIa cell growth in a cell viability assay.

SF-268 = assay type: functional, cell-based, Homo sapiens; conditions: Homo sapiens, SF-268;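 note: growth inhibition of SF-268 cells determined with a cell viability assay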
Description: SANGER: Inhibition of human SF268 cell growth in a cell viability assay.

NB5 = assay type: functional, cell-based, Homo sapiens; conditions: Homo sapiens, NB5;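 note: growth inhibition of NB5 cells, read out as cell viability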
Description: SANGER: Inhibition of human NB5 cell growth in a cell viability assay.

TE-6 = assay type: functional, cell-based, Homo sapiens; conditions: Homo sapiens, TE-6;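 note: growth inhibition of TE-6 cells, read out with a cell viability assay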
Description: SANGER: Inhibition of human TE-6 cell growth in a cell viability assay.

EW-1 = assay type: functional, cell-based, Homo sapiens; conditions: Homo sapiens, EW-1;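 note: growth inhibition of the human EW-1 cell line, read out by a cell viability assay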
Description: SANGER: Inhibition of human EW-1 cell growth in a cell viability assay.

SW 954 = assay type: functional, cell-based, Homo sapiens; conditions: Homo sapiens, SW 954;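 note: growth inhibition of SW954 human cancer cells, read out as cell viability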
Description: SANGER: Inhibition of human SW954 cell growth in a cell viability assay.

TYK-nu = assay type: functional, cell-based, Homo sapiens; conditions: Homo sapiens, TYK-nu;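 note: growth inhibition of human TYK-nu cells, read out by a cell viability assay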
Description: SANGER: Inhibition of human TYK-nu cell growth in a cell viability assay.

MFE-280 = assay type: functional, cell-based, Homo sapiens; conditions: Homo sapiens, MFE-280;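 note: growth inhibition of MFE-280 cells, determined with a cell viability readout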
Description: SANGER: Inhibition of human MFE-280 cell growth in a cell viability assay.

CWR22R = assay type: functional, cell-based, Homo sapiens; conditions: Homo sapiens, 22Rv1;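 note: growth inhibition of 22Rv1 cells, read out with a cell viability assay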
Description: SANGER: Inhibition of human 22RV1 cell growth in a cell viability assay.

A498 = assay type: functional, cell-based, Homo sapiens; conditions: Homo sapiens, A498;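 note: growth inhibition of human A498 cells, read out with a cell viability assay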
Description: SANGER: Inhibition of human A498 cell growth in a cell viability assay.

NB17 = assay type: functional, cell-based; conditions: Homo sapiens;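 note: growth inhibition of NB17 cells, read out with a cell viability assay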
Description: SANGER: Inhibition of human NB17 cell growth in a cell viability assay.

CHP-212 = assay type: functional, cell-based, Homo sapiens; conditions: Homo sapiens, CHP-212
Description: SANGER: Inhibition of human CHP-212 cell growth in a cell viability assay.

G-401 = assay type: functional, cell-based, Homo sapiens; conditions: Homo sapiens, G-401
Description: SANGER: Inhibition of human G-401 cell growth in a cell viability assay.

SW-620 = assay type: functional, cell-based, Homo sapiens; conditions: Homo sapiens, SW-620;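 note: growth inhibition of human SW-620 cells, measured by a cell viability assay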
Description: SANGER: Inhibition of human SW620 cell growth in a cell viability assay.

786-0 = assay type: functional, cell-based, Homo sapiens; conditions: Homo sapiens
Description: SANGER: Inhibition of human 786-0 cell growth in a cell viability assay.

A388 = assay type: functional, cell-based, Homo sapiens; conditions: Homo sapiens, A388;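 note: growth inhibition of human A388 cells, read out with a cell viability assay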
Description: SANGER: Inhibition of human A388 cell growth in a cell viability assay.

SF-126 = assay type: functional, cell-based, Homo sapiens; conditions: Homo sapiens, SF-126;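 note: growth inhibition of human SF126 cells, read out with a cell viability assay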
Description: SANGER: Inhibition of human SF126 cell growth in a cell viability assay.

HAL-01 = assay type: functional, cell-based; conditions: Homo sapiens;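 note: growth inhibition of human HAL-01 cells, read out with a cell viability assay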
Description: SANGER: Inhibition of human HAL-01 cell growth in a cell viability assay.

HLE = assay type: functional, cell-based, Homo sapiens; conditions: Homo sapiens, HLE;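 note: growth inhibition of human HLE cells, read out by a cell viability assay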
Description: SANGER: Inhibition of human HLE cell growth in a cell viability assay.

SN12C = assay type: functional, cell-based, Homo sapiens; conditions: Homo sapiens, SN12C;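 note: growth inhibition of human SN12C cells, measured by a cell viability assay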
Description: SANGER: Inhibition of human SN12C cell growth in a cell viability assay.

VMRC-RCZ = assay type: functional, cell-based; conditions: Homo sapiens;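 note: growth inhibition measured with a cell viability assay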
Description: SANGER: Inhibition of human VMRC-RCZ cell growth in a cell viability assay.

G-402 = assay type: functional, cell-based, Homo sapiens; conditions: Homo sapiens, G-402
Description: SANGER: Inhibition of human G-402 cell growth in a cell viability assay.

NCI-H441 = assay type: functional, cell-based; conditions: Homo sapiens;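 note: growth inhibition of NCI-H441 cells, read out with a cell viability assay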
Description: SANGER: Inhibition of human NCI-H441 cell growth in a cell viability assay.

CAL-120 = assay type: functional, cell-based, Homo sapiens; conditions: Homo sapiens, CAL-120;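 note: cell growth inhibition, read out as cell viability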
Description: SANGER: Inhibition of human CAL-120 cell growth in a cell viability assay.

TGBC1TKB = assay type: functional, cell-based, Homo sapiens; conditions: Homo sapiens, TGBC1TKB;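 note: growth inhibition of TGBC1TKB cells, read out by a cell viability assay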
Description: SANGER: Inhibition of human TGBC1TKB cell growth in a cell viability assay.

Hs-578T = assay type: functional, cell-based, Homo sapiens; conditions: Homo sapiens, Hs-578T
Description: SANGER: Inhibition of human Hs-578-T cell growth in a cell viability assay.

HH = assay type: functional, cell-based; conditions: Homo sapiens
Description: SANGER: Inhibition of human HH cell growth in a cell viability assay.

NB10 = assay type: functional, cell-based, Homo sapiens; conditions: Homo sapiens, NB10;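 note: growth inhibition of NB10 cells, read out by a cell viability assay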
Description: SANGER: Inhibition of human NB10 cell growth in a cell viability assay.

BHT-101 = assay type: functional, cell-based, Homo sapiens; conditions: Homo sapiens, BHT-101
Description: SANGER: Inhibition of human BHT-101 cell growth in a cell viability assay.

SW 962 = assay type: functional, cell-based, Homo sapiens; conditions: Homo sapiens, SW 962;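 note: growth inhibition of human SW962 cells, read out by a cell viability assay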
Description: SANGER: Inhibition of human SW962 cell growth in a cell viability assay.

C2BBe1 = assay type: functional, cell-based, Homo sapiens; conditions: Homo sapiens, C2BBe1;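 note: growth inhibition of C2BBe1 cells, read out through a viability assay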
Description: SANGER: Inhibition of human C2BBe1 cell growth in a cell viability assay.

NCI-H2405 = assay type: functional, cell-based, Homo sapiens; conditions: Homo sapiens, NCI-H2405;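 note: growth inhibition of the human cell line, read out with a cell viability assay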
Description: SANGER: Inhibition of human NCI-H2405 cell growth in a cell viability assay.

MG-63 = assay type: functional, cell-based, Homo sapiens; conditions: Homo sapiens, MG-63;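 note: growth inhibition of human MG-63 cells, read out with a cell viability assay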
Description: SANGER: Inhibition of human MG-63 cell growth in a cell viability assay.

IGR-1 = assay type: functional, cell-based, Homo sapiens; conditions: Homo sapiens, IGR-1;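 note: growth inhibition of human IGR-1 cells, read out with a cell viability assay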
Description: SANGER: Inhibition of human IGR-1 cell growth in a cell viability assay.

A4-Fuk = assay type: functional, cell-based; conditions: Homo sapiens;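 note: growth inhibition of A4-Fuk cells, read out by a cell viability assay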
Description: SANGER: Inhibition of human A4-Fuk cell growth in a cell viability assay.

ES3 = assay type: functional, cell-based, Homo sapiens; conditions: Homo sapiens, ES3;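 note: growth inhibition of ES3 cells, read out with a cell viability assay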
Description: SANGER: Inhibition of human ES3 cell growth in a cell viability assay.

LC-2-ad = assay type: functional, cell-based, Homo sapiens; conditions: Homo sapiens, LC-2-ad;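 note: growth inhibition of human LC-2-ad cells, read out with a cell viability assay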
Description: SANGER: Inhibition of human LC-2-ad cell growth in a cell viability assay.

BFTC-905 = assay type: functional, cell-based, Homo sapiens; conditions: Homo sapiens, BFTC-905
Description: SANGER: Inhibition of human BFTC-905 cell growth in a cell viability assay.

QIMR-WIL = assay type: functional, cell-based; conditions: Homo sapiens;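 note: growth inhibition of QIMR-WIL cells, read out with a cell viability assay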
Description: SANGER: Inhibition of human QIMR-WIL cell growth in a cell viability assay.

FTC-133 = assay type: functional, cell-based, Homo sapiens; conditions: Homo sapiens, FTC-133
PANC-03-27 = assay type: functional, cell-based, Homo sapiens; conditions: Homo sapiens, PANC-03-27
Description: SANGER: Inhibition of human PANC-03-27 cell growth in a cell viability assay.

Measured: pIC50

CCOc1nc(NC(=O)Cc2cc(OC)ccc2OC)cc(N)c1C#N
< 5.00: all assays above

C=CCNC1=C2C[C@@H](C)C[C@H](OC)[C@H](O)[C@@H](C)/C=C(\C)[C@H](OC(N)=O)[C@@H](OC)/C=C\C=C(/C)C(=O)NC(=CC1=O)C2=O [TANESPIMYCIN]
6.53: SW 954
6.23: ES3
6.19: SF-268
7.30: SKG-IIIa
6.10: IGR-1
6.85: LC-2-ad
6.50: BFTC-905
7.58: CHP-212
7.00: SN12C
6.98: G-401
7.09: MKN-45 | TGBC1TKB
7.40: TYK-nu | SW 962
6.07: QIMR-WIL
7.32: G-402
6.06: NB17
6.59: TE-6
7.15: SW-620
6.99: A498 | PANC-03-27
6.27: CAL-120
6.67: MFE-280
6.65: C2BBe1
6.86: VMRC-RCZ
6.70: SBC-5
7.54: ME-180
7.14: Hs-578T
6.78: FTC-133
6.32: HT-3
6.81: 786-0
6.12: A388
6.46: NCI-H2405
< 6.00: all other assays above

CC(=O)O[C@@H]1[C@@H](OC(C)=O)[C@@H](O)[C@H](Oc2c(-c3ccc(O)cc3)oc3cc(O)cc(O)c3c2=O)O[C@H]1C
5.30: NCI-H82
< 5.00: all other assays above
